The source of these data is patent US9273046B2, “Fused tricyclic compounds as Raf kinase inhibitors” (BeiGene, LTD., priority 2011, dated 2016).

In one test the target is C-Raf (Y340D/Y341D) (Homo sapiens (Human), UniProt P04049, Y340D/Y341D). As to the kind of experiment: Raf IC50 assay, time-resolved fluorescence energy transfer (TR-FRET), C-Raf. The test is classed as biochemical. As to conditions: 0.5 nM C-Raf, 0.1 mM ATP, GST-tagged MEK1 substrate, 60 min preincubation. On the procedure: The assay was carried out in reactions (10 μL) containing 0.0625 nM B-Raf or 0.5 nM C-Raf, 25 mM Tris pH7.4, 10 mM MgCl2, 0.5 mM EGTA, 0.5 mM […], 5 mM beta-glycerophosphate, 0.01% Triton X-100, 2.5 mM DTT, 0.1% BSA, 0.1 mM ATP, 13.7 nM GST-tagged MEK1 (Full-length protein with K97R mutation, recombinant protein purified from bacterial expression system) and 0-5 μM compounds disclosed herein (final concentration of 1% DMSO). The enzyme was incubated with the compounds at room temperature for 60 minutes and the reactions were initiated by the addition of ATP and GST-MEK1. After incubating at room temperature for 60 minutes, an equal volume of stop buffer containing 25 mM Tris pH7.4, 400 mM KF, 50 mM EDTA, 0.01% BSA, 0.01% Triton X-100, 1 test of Eu3+ Cryptate-conjugated rabbit polyclonal antibody anti-Phospho MEK1/2 (Ser217/221) and 1 test of d2-conjugated mouse monoclonal antibody anti-glutathione S-transferase was added to stop the reactions. Plates were sealed and incubated at room temperature for 2 hours, and then the TR-FRET signals were read on BMG PHERAstar FS instrument. The IC50 for each compound was calculated by non linear regression by Graphpad Prism software.

The next test concerns the target B-Raf (V600E) (Homo sapiens (Human), UniProt P15056, V600E). As to the kind of experiment: Raf IC50 assay, time-resolved fluorescence energy transfer (TR-FRET), B-Raf. It is filed as biochemical. On the procedure: The enzyme was incubated with the compounds at room temperature for 60 minutes and the reactions were initiated by the addition of ATP and GST-MEK1. […] Plates were sealed and incubated at room temperature for 2 hours, and then the TR-FRET signals were read on BMG PHERAstar FS instrument. The IC50 for each compound was calculated by non linear regression by Graphpad Prism software.
On the technique in general: In TR-FRET formats the signal depends on donor and acceptor labels being close together.

[1] abbreviates: 0.0625 nM B-Raf, 0.1 mM ATP, GST-tagged MEK1 substrate, 60 min preincubation, read-out: B-Raf (V600E) IC50.

Where two headings read alike, the source gives them in different places.

What is called IC50 is the point on the concentration scale where inhibition reaches its midpoint.

C-Raf (Y340D/Y341D), sequence (P04049 whole entry Y340D/Y341D): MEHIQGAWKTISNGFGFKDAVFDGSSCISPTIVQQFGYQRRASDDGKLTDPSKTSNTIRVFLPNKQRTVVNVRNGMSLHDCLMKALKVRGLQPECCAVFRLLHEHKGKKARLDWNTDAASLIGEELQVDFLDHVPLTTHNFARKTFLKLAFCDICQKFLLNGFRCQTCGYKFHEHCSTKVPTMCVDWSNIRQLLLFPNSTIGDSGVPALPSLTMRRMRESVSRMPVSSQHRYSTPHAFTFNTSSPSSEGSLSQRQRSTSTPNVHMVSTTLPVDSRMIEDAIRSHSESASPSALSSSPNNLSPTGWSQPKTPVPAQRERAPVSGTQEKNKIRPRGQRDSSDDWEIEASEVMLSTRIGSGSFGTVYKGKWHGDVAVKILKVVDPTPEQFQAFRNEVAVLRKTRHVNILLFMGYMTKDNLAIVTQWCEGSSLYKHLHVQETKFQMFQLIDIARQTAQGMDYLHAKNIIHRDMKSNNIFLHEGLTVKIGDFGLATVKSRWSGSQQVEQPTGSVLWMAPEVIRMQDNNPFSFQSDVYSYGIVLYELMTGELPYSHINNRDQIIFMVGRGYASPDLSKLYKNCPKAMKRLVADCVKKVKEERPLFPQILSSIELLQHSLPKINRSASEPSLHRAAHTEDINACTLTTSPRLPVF
B-Raf (V600E), sequence (P15056 whole entry V600E): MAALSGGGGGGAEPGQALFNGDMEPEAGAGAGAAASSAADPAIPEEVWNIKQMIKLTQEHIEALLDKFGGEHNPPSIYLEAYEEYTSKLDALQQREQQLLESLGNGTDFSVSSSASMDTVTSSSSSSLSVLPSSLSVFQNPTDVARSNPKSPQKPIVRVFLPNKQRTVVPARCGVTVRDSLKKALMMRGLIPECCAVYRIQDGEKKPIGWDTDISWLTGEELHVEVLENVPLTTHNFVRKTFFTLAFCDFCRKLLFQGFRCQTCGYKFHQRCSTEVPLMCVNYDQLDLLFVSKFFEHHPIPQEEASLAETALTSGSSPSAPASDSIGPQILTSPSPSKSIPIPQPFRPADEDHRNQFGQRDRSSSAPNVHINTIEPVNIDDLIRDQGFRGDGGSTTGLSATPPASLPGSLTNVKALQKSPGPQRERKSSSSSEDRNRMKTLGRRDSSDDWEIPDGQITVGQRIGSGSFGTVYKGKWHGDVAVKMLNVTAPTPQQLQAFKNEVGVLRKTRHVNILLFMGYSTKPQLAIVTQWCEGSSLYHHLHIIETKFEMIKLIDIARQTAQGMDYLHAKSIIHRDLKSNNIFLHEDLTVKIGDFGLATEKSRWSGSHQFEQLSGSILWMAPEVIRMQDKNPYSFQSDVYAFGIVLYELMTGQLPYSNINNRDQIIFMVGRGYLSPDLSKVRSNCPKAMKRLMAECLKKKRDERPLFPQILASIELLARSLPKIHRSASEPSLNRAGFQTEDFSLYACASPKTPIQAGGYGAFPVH

Consider `FC(F)(F)c1ccc2nc(C3C4Oc5ccc(Oc6ccnc(-c7nc(C(F)(F)F)c[nH]7)c6)cc5C43)[nH]c2c1` (racemic) [Compound 3.4, (±)-exo-6-(trifluoromethyl)-2-(5-((2-(4-(trifluoromethyl)-1H-imidazol-2-yl)pyridin-4-yl)oxy)-1a,6b-dihydro-1H-cyclopropa[b]benzofuran-1-yl)-1H-benzo[d]imidazole], for which the results for the IC50 on C-Raf (Y340D/Y341D) and at B-Raf (V600E) (setting [1]) were 56 nM and 291 nM, respectively.

In the case of `CC(C)(C)c1ccc2nc(C3C4Oc5ccc(Oc6ccnc7c6CCC(=O)N7)cc5C43)[nH]c2c1` (centres unmarked) [Compound 2.20], the figures for the IC50 against C-Raf (Y340D/Y341D) and on B-Raf (V600E) (setting [1]) were 4.4 nM and 33 nM, respectively.

Turning to `O=C1CCc2c(Oc3ccc4c(c3)C3C(O4)C3c3nc4cc(Cl)c(F)cc4[nH]3)ccnc2N1` (centres unmarked) [Compound 2.17], the figures for the IC50 against C-Raf (Y340D/Y341D) and on B-Raf (V600E) (setting [1]) were 5.9 nM and 5.4 nM, respectively.

`O=C1CCc2c(Oc3cc4c(cc3Cl)OC3C(c5nc6ccc(C(F)(F)F)cc6[nH]5)C43)ccnc2N1` (racemic) [Compound 2.36, (±)-exo-5-((4-chloro-1-(6-(trifluoromethyl)-1H-benzo[d]imidazol-2-yl)-1a,6b-dihydro-1H-cyclopropa[b]benzofuran-5-yl)oxy)-3,4-dihydro-1,8-naphthyridin-2(1H)-one]: the IC50 came out at 32 nM against C-Raf (Y340D/Y341D) and 117 nM at B-Raf (V600E) (setting [1]).

Consider `O=C1CCc2c(Oc3ccc4c(c3)C3C(O4)C3c3nc4c(Cl)cc(C(F)(F)F)cc4[nH]3)ccnc2N1` (centres unmarked) [Compound 2.10], for which the IC50 was found to be 25 nM on C-Raf (Y340D/Y341D) and 80 nM at B-Raf (V600E) (setting [1]).

With `NC(=O)c1ccc2nc(C3C4Oc5ccc(Oc6ccnc7c6CCC(=O)N7)cc5C43)[nH]c2c1` (centres unmarked) [Compound 2.22], the IC50 was 1 nM against C-Raf (Y340D/Y341D) and 4 nM at B-Raf (V600E) (setting [1]).

Take `O=C1CCc2c(Oc3ccc4c(c3)C3C(O4)C3c3nc(-c4ccccc4)c[nH]3)ccnc2N1` (racemic) [Compound 2.30, (±)-exo-5-((1-(4-phenyl-1H-imidazol-2-yl)-1a,6b-dihydro-1H-cyclopropa[b]benzofuran-5-yl)oxy)-3,4-dihydro-1,8-naphthyridin-2(1H)-one]: the concentration for half-maximal inhibition (IC50) was below 0.25 nM on C-Raf (Y340D/Y341D) and 0.72 nM on B-Raf (V600E) (setting [1]).

For the compound `Cc1ccc2nc(C3C4Oc5ccc(Oc6ccnc7c6CCC(=O)N7)cc5C43)[nH]c2c1` (centres unmarked) [Compound 2.8], the values for the IC50 at C-Raf (Y340D/Y341D) and on B-Raf (V600E) (setting [1]) were 0.71 nM and 3.7 nM, respectively.

Consider `O=C1CCc2c(Oc3ccc4c(c3)C3C(C4)C3C(=O)O)ccnc2N1` (racemic) [Intermediate I, (±)-exo-3-((7-Oxo-5,6,7,8-tetrahydro-1,8-naphthyridin-4-yl)oxy)-1,1a,6,6a-tetrahydrocyclopropa[a]indene-1-carboxylic acid], for which the IC50 at C-Raf (Y340D/Y341D) and at B-Raf (V600E) was above 5000 nM in each case.

For the compound `FC(F)(F)c1ccc2nc(C3C4Oc5ccc(Oc6ccnc7[nH]ccc67)cc5C43)[nH]c2c1` (racemic) [Compound 3.3, (±)-exo-2-(5-((1H-pyrrolo[2,3-b]pyridin-4-yl)oxy)-1a,6b-dihydro-1H-cyclopropa[b]benzofuran-1-yl)-6-(trifluoromethyl)-1H-benzo[d]imidazole], the IC50 against C-Raf (Y340D/Y341D) is 104 nM; on B-Raf (V600E) (setting [1]), 522 nM.
